Reference: patent publication US11591323B2, “Muscarinic agonists as non-steroidal and non-opioid analgesics and methods of use thereof” (Barry University, priority 2019, dated 2023)

Key:
M3 muscarinic receptor = M3 muscarinic receptor (Homo sapiens, UniProt P20309); assay: inhibition of forskolin-stimulated cAMP, M3 CHO cells (M3Gi); assay type: cell-based; design: host or cells: CHO cells, stably transfected; details: for Emax: CHO; for Emax / EC50 / τ / RAi / Kd: M3Gi (↓cAMP); for Emax / EC50 / τ / Kd: Table 8; for effect on forskolin-stimulated production of cAMP: M3, non-preferential response, in words; for RAi: Table 8, relative to carbachol; for Kd: read-out: pKA (converted)
Sequence of M3 muscarinic receptor (P20309 whole entry): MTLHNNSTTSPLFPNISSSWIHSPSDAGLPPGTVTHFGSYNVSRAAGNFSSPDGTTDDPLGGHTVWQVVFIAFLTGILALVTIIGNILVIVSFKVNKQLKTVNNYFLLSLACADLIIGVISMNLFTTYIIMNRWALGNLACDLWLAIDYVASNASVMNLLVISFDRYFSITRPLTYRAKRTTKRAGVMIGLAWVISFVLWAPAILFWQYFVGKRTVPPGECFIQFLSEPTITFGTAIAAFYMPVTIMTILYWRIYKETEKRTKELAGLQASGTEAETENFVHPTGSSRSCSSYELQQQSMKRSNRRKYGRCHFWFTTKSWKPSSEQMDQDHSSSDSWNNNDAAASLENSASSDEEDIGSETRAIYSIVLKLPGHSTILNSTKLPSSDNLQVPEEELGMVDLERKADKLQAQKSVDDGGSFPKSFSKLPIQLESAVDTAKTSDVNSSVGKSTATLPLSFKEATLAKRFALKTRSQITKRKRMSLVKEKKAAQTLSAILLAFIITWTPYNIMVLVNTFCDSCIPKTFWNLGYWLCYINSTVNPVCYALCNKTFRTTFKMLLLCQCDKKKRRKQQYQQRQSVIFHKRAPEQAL
Method: (§1) Since activation of phospholipase C (PLC) via M2 and M4 receptors is weak, cells were transferred with G15 G-protein to facilitate coupling.
(§2) To determine level of cAMP, cells in suspension were pre-incubated for 1 h with 0.4 μM [^3H]adenine, washed, and incubated for 10 min in the presence of isobutylmethylxanthine and 10 μM forskolin. […] Incubation was ended by addition of 0.2 ml of 2.5 M HCl to the samples. Samples were applied to alumina columns (1.5 g of alumina per column), washed with 2 ml ammonium acetate (pH=7.0) and eluted from columns with 4 ml ammonium acetate and measured by liquid scintillation spectrometry. […] The incubation was stopped by addition of 0.5 ml of chloroform methanol HCl mixture (2:1:0.1). After separation of water and organic phases, 0.6 ml of water phase was applied to Dowex columns (1.5 g of Dowex per column), washed by 20 ml of 60 mM ammonium formate/5 mM sodium borate buffer and eluted from columns with 4 ml of 1M ammonium formate/0.1 formic acid buffer and measured by liquid scintillation spectrometry.
(§3) Measurements of the production of cAMP and inositol phosphates: Levels of second messengers cAMP and inositol phosphates were determined in radiochemical chromatography assays as described previously. To determine level of cAMP, cells in suspension were pre-incubated for 1 h with 0.4 μM [^3H]adenine, washed, and incubated for 10 min in the presence of isobutylmethylxanthine and 10 μM forskolin. […] Incubation was ended by addition of 0.2 ml of 2.5 M HCl to the samples. Samples were applied to alumina columns (1.5 g of alumina per column), washed with 2 ml ammonium acetate (pH=7.0) and eluted from columns with 4 ml ammonium acetate and measured by liquid scintillation spectrometry. […] For this purpose, new CHO cell lines stably expressing promiscuous G15 G-protein and M2 or M4 receptor were generated by transfection with pCMV/hygro vector and hygromycin selection. To determine the rate of formation of inositol phosphates IPX, suspended cells were pre-incubated with 0.1 μM [^3H]myo-inositol for 60 min, washed, and incubated with 10 mM LiCl for 15 min. […] The incubation was stopped by addition of 0.5 ml of chloroform methanol HCl mixture (2:1:0.1). After separation of water and organic phases, 0.6 ml of water phase was applied to Dowex columns (1.5 g of Dowex per column), washed by 20 ml of 60 mM ammonium formate/5 mM sodium borate buffer and eluted from columns with 4 ml of 1M ammonium formate/0.1 formic acid buffer and measured by liquid scintillation spectrometry.
(§4) For bi-phasic response, curves were inhibitory and stimulatory phase were fitted separately. Operational Model of Functional Agonism
(§5) [formula] where y is functional response at concentration of tested compound x, EMAX is maximal response of the system, KA is equilibrium dissociation constant and nH is slope factor. Eq. 5 was fitted to data from functional experiments. Eq. 5 was fitted to data by the two-step procedure described earlier. […] In the second step, Eq. 5 with EMAX fixed to the value determined in the first step was fitted to individual experimental data sets. Relative Intrinsic Activity
(§6) Muscarinic receptors are also able to stimulate non-preferential signalling pathways.

M1 muscarinic receptor = target: T1, M1 muscarinic receptor (Homo sapiens, UniProt P11229); assay: inhibition of forskolin-stimulated cAMP, M1 CHO cells (M1Gi); assay type: cell-based; design: host or cells: CHO cells, stably transfected; details: for Emax: CHO; for Emax / EC50 / τ / RAi / Kd: M1Gi (↓cAMP); for Emax / EC50 / τ / Kd: Table 8; for effect on forskolin-stimulated production of cAMP: M1, non-preferential response, in words; for RAi: Table 8, relative to carbachol; for Kd: read-out: pKA (converted)
T1 sequence (P11229 1-460): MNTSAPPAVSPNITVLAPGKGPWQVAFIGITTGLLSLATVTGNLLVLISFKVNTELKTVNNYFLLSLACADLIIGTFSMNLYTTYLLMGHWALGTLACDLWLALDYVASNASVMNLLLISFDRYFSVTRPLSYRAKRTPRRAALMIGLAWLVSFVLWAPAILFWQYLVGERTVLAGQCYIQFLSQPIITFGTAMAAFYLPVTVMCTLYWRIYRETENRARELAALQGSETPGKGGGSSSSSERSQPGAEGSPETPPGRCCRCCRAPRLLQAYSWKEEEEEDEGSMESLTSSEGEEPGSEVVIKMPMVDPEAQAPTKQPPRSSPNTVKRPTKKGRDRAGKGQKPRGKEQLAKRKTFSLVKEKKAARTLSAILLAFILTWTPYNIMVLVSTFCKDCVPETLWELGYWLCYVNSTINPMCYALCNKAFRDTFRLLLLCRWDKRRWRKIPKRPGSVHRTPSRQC
Method: as §1, §2, §3, §4, §5, §6

SMILES	Emax (M3 muscarinic receptor)	effect on forskolin-stimulated production of cAMP (M3 muscarinic receptor)	EC50 (M3 muscarinic receptor)	τ (M3 muscarinic receptor)	RAi (M3 muscarinic receptor)	Kd (M3 muscarinic receptor)	Emax (M1 muscarinic receptor)	effect on forskolin-stimulated production of cAMP (M1 muscarinic receptor)	EC50 (M1 muscarinic receptor)	τ (M1 muscarinic receptor)	RAi (M1 muscarinic receptor)	Kd (M1 muscarinic receptor)
C1=CCN(Cc2cccs2)CC1.Cl [Compound 6A, 1-[(thiophen-2-yl)methyl]-1,2,3,6-tetrahydropyridin-1-ium chloride]	13 ± 1%	inhibited cAMP production	7.76 µM	0.17 ± 0.02	+inf.	10 µM	26 ± 2%	inhibited cAMP production	11.7 µM	0.42 ± 0.04	+inf.	15.8 µM
C[N+]1(Cc2cccs2)CC=CCC1.[I-] (stereo not drawn) [Compound 7A, 1-methyl-1-[(thiophen-2-yl)methyl]-1,2,3,6-tetrahydropyridin-1-ium iodide]	16 ± 1%	inhibited cAMP production	8.71 µM	0.22 ± 0.02	+inf.	10 µM	30 ± 3%	inhibited cAMP production	7.94 µM	0.52 ± 0.05	+inf.	12.6 µM
